US20130084328A1, “METHYLATED CODING AND NON-CODING RNA GENES AS DIAGNOSTIC AND THERAPEUTIC TOOLS FOR HUMAN MELANOMA” (Sanford-Burnham Medical Research Institute, priority 2011, published 2013)

Test system: miR-124-3a and miR-let-7i
Assay: expression and bisulfite methylation of miR-124-3a and miR-let-7i after 5-Aza-dC
Assay type: cell-based, human
Details: melanoma cells
Description: PCR was performed using a 6-minute hot-start at 95° C., followed by 35 cycles at 94° C. for 20 s, 54° C. for 25 s, and 72° C. for 30 s, ending with a 10-min extension at 72° C. using AmpliTaq Gold (Applied Biosystems/Life Technologies). PCR products were gel purified using the QiaQuick gel extraction kit (QIAGEN) and cloned into the pCR4-TOPO vector (Invitrogen/Life Technologies). Nine clones for each miRNA candidate and 6 clones for each patient sample were sequenced using M13 primers and the BigDye terminator kit v1.1 (Applied Biosystems/Life Technologies), analyzed on a 3130×1 Genetic Analyzer (Applied Biosystems/Life Technologies), and aligned using Vector NTi AlignX (Invitrogen/Life Technologies).

With `Nc1ncn([C@H]2C[C@H](O)[C@@H](CO)O2)c(=O)n1` [5AzadC, 5-aza-2′-deoxycytidine] the “expression and methylation levels of miR-124-3a and miR-let-7i” value was “not affected”.
